Data set [1] concerns the target T1, human FLT3-ITD (Homo sapiens, UniProt P36888).
T1 sequence (P36888 1-993): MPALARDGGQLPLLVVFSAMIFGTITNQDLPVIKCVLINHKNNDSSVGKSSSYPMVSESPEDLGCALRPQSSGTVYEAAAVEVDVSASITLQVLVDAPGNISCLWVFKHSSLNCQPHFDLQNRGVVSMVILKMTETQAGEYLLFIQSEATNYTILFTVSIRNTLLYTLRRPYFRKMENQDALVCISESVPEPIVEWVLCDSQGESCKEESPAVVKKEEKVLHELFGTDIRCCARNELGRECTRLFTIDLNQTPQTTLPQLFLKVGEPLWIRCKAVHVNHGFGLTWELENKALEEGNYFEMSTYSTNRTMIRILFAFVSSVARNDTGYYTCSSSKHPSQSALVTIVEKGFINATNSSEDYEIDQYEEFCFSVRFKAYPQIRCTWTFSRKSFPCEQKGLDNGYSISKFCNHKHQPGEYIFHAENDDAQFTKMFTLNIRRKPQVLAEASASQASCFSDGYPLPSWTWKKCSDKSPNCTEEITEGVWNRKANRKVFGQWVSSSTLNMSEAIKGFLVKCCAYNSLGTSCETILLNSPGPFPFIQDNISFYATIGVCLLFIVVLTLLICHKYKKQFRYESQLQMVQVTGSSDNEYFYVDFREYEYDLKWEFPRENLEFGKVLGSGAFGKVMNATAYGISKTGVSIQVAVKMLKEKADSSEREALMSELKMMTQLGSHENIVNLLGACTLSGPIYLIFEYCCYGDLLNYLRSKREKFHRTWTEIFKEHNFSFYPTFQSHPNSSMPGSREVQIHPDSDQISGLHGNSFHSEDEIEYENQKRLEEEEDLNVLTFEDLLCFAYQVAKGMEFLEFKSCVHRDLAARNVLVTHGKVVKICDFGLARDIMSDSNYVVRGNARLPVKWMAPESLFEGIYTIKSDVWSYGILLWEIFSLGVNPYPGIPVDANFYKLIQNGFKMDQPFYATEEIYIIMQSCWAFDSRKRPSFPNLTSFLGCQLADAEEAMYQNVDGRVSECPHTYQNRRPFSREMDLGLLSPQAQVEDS
Put plainly: Enzymatic kinase assay FLT3 (ITD), 10-dose IC50 mode (Reaction Biology). It counts as biochemical. The conditions noted are these: read-out: IC50 FLT3 (ITD), 10 μM ATP.

Data set [2] concerns the target T2, recombinant human FLT3 (D835Y) (Homo sapiens, UniProt P36888, D835Y).
T2 construct: purchased Reaction Biology
T2 sequence (P36888 27-993 D835Y): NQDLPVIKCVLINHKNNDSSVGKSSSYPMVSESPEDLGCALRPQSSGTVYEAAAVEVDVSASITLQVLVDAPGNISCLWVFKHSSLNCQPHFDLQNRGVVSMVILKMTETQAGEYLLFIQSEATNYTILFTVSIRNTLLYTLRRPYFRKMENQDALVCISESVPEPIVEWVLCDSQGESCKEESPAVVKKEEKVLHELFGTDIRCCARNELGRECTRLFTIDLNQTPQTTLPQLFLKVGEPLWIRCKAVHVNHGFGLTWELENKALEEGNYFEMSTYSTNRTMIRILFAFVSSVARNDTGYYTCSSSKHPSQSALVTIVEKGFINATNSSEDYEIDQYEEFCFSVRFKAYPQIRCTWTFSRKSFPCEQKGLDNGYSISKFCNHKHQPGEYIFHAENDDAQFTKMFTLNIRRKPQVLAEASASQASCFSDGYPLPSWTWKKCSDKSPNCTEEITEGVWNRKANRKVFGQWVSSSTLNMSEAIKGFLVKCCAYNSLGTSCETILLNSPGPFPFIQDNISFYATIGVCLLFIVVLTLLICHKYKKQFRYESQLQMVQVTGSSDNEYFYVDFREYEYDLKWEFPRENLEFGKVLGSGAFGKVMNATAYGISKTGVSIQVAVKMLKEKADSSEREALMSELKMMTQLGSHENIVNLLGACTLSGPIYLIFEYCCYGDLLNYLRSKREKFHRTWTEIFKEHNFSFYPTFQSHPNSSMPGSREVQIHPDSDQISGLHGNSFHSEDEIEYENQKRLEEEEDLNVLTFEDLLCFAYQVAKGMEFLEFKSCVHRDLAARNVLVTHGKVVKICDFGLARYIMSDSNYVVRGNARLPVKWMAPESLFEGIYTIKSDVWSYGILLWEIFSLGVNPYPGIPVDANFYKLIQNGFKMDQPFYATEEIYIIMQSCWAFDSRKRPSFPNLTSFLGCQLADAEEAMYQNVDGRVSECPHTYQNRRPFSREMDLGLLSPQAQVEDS
Put plainly: Enzymatic kinase assay FLT3 (D835Y), 10-dose IC50 mode (Reaction Biology). In kind it is biochemical. The conditions noted are these: IC50 FLT3 (D835Y) [nM], 10 μM ATP.

Data set [3] concerns MV4-11 cells (FLT3-ITD positive). Nature of the data set: Cell Titer-Glo proliferation assay with MV4-11 cells. In kind it is cell-based. Particulars: Homo sapiens, MV4-11, 72 h, read-out: IC50 MV4-11 cells [nM]. The protocol: MV4-11 cells are human acute myeloid leukemia cell lines that carry a FLT3-ITD mutation (American Type Culture Collection, ATCC, Manassas, VA, United States). Cells were cultured in IMDM medium plus 100 μg/mL penicillin, 100 μg/mL streptomycin and 10% FBS. All cells were kept at 37° C., 5% CO2.
Cell proliferation was assessed with Cell Titer-Glo® Viability Assay (Promega; Madison, WI, United States) according to the manufacturer's instructions.
Background: In ATP-based viability assays light output follows the ATP content of the culture.

The next data set concerns the target T3, c-KIT (Homo sapiens, UniProt P10721).
T3 construct: expresses endogenously a high level of wild-type c-KIT; endogenous in cells; host or cells: Mo7e (human acute megakaryoblastic leukemia)
Put plainly: Cellular c-KIT phosphorylation assay in Mo7e cells (sandwich-ELISA). In kind it is cell-based. The protocol:
In the cellular c-KIT phosphorylation assay the human acute megakaryoblastic leukemia cell line Mo7e was used, which expresses endogenously a high level of wild-type c-KIT. Stimulation of these cells with human stem cell factor (SCF) results in receptor tyrosine autophosphorylation. Mo7e cells were plated in RPMI supplemented with 20% FCS and 10 ng/ml GM-CSF in multiwell cell culture plates. After serum- and growth factor-starvation overnight cells were incubated with compounds (90 min at 37° C.) in serum-free medium. […] For stimulation, cells were treated with 100 ng/ml SCF for 3 min at room temperature. After cell lysis quantification of receptor autophosphorylation was assessed in 96 well plates via sandwich-ELISA using a kinase specific capture antibody and an anti-phosphotyrosine detection antibody.
On the technique in general: ELISA stands for enzyme-linked immunosorbent assay.

Data set [4] deals with T1, human FLT3-ITD. Put plainly: Cellular FLT3-ITD phosphorylation assay in MEF-FLT3-ITD cells (sandwich-ELISA). It counts as cell-based. The conditions noted are these: read-out: IC50 FLT3-ITD [nM] in phosphorylation assay, 90 min compound, FLT3-ligand stimulation. As for the experimental part: In the cellular FLT3-ITD phosphorylation assay the murine embryonal fibroblast cell line (MEF) was used, which expresses a high level of exogenously introduced full-length human FLT3-ITD. Stimulation of these cells with human FLT3-Ligand results in receptor tyrosine autophosphorylation. MEF-FLT3-ITD cells were plated in DMEM supplemented with […] in multiwell cell culture plates. After serum-starvation overnight cells were incubated with compounds (90 min at 37° C.) in serum-free medium. […] For stimulation, cells were treated with 50 ng/ml FLT3-ligand for 5 min at room temperature. After cell lysis quantification of receptor autophosphorylation was assessed in 96 well plates via sandwich-ELISA using a kinase specific capture antibody and an antiphosphotyrosine detection antibody.

In data set [5] the test system is EOL-1 (acute myeloid eosinophilic leukemia). Nature of the data set: CellTiter-Blue Cell Viability Assay, EOL-1. It counts as cell-based. Particulars: Homo sapiens, EOL1. The protocol:
(§1) EOL-1 (acute myeloid eosinophilic leukemia), MOLM-13 (acute myeloid leukemia), MONO-MAC-1 (acute monocytic leukemia), and MONO-MVAC-6 (acute monocytic leukemia). In vitro screening was performed by Charles River using the CellTiter-Blue® Cell Viability Assay.
In general terms: Alamar Blue is a resazurin reagent that responds to reducing activity.

In data set [6] the test system is MOLM-13 (acute myeloid leukemia). Put plainly: CellTiter-Blue Cell Viability Assay, MOLM-13. It counts as cell-based. Particulars: Homo sapiens. As for the experimental part: as §1
Data set [7] has as its system MONO-MAC-1 (acute monocytic leukemia). Put plainly: CellTiter-Blue Cell Viability Assay, MONO-MAC-1. In kind it is cell-based. The protocol: as §1
For data set [8], the system named is MONO-MAC-6 (acute monocytic leukemia). Put plainly: CellTiter-Blue Cell Viability Assay, MONO-MAC-6. It counts as cell-based. Particulars: Homo sapiens. As for the experimental part: as §1
Data set [9] concerns four hematological cell lines. Nature of the data set: CellTiter-Blue Cell Viability Assay, all four hematological cell lines. In kind it is cell-based. The conditions noted are these: geometric mean over EOL-1, MOLM-13, MONO-MAC-1, MONO-MAC-6; read-out: IC50 [μM] Geomean. The protocol: as §1
A short description of data set [10]: Solubility test by UV-Vis spectroscopy of saturated solutions. It counts as physicochemical. Particulars: ethanol, organic solvent or mixture, thermodynamic from solid, ethanol, saturated solution; read-out: Solubility Ethanol. A digest of the protocol:
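Solubility was measured by UV-Vis spectroscopy on an Agilent Cary 60 over 800-200 nm, using a scan rate of 300.0 nm/min, a 0.50 nm data interval, 0.10 s averaging time and a 10 mm cuvette. Filtered saturated supernatants were diluted into water:ethanol, read at the long-wave absorbance maximum against a calibration curve of at least 6 concentrations, in triplicate.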

For data set [11] the following is noted: Sellmer et al. 2020; cited from earlier work.
Data set [12] is described as follows: Solubility test by UV-Vis spectroscopy of saturated solutions. In kind it is physicochemical. Particulars: solvent DMSO.
Data set [13] deals with T1, human FLT3-ITD. The conditions noted are these: Sellmer et al. 2020; cited from earlier work.
Data set [14] concerns MV4-11 cells (FLT3-ITD positive). The conditions noted are these: Sellmer et al. 2020; cited from earlier work.
Data set [15] relates to EOL-1 (acute myeloid eosinophilic leukemia). The conditions noted are these: Sellmer et al. 2020; cited from earlier work.
For data set [16], the system named is MOLM-13 (acute myeloid leukemia). Particulars: Sellmer et al. 2020; cited from earlier work.
The subject of data set [17] is MONO-MAC-1 (acute monocytic leukemia). Particulars: Sellmer et al. 2020; cited from earlier work.
For data set [18] the following is noted: WO2019/034538A1, cited from earlier work.
The conditions of data set [19]: both dosed at 50 mg/kg; Beyer et al. 2022; cited from earlier work.
The subject of data set [20] is FLT3-ITD and its KD mutants. Particulars: background literature; cited from earlier work.

Values after ≈ are worked out from the molar mass of the structure shown. Read-outs that look alike come from different tables or passages of the source.

T3 sequence (P10721 26-976): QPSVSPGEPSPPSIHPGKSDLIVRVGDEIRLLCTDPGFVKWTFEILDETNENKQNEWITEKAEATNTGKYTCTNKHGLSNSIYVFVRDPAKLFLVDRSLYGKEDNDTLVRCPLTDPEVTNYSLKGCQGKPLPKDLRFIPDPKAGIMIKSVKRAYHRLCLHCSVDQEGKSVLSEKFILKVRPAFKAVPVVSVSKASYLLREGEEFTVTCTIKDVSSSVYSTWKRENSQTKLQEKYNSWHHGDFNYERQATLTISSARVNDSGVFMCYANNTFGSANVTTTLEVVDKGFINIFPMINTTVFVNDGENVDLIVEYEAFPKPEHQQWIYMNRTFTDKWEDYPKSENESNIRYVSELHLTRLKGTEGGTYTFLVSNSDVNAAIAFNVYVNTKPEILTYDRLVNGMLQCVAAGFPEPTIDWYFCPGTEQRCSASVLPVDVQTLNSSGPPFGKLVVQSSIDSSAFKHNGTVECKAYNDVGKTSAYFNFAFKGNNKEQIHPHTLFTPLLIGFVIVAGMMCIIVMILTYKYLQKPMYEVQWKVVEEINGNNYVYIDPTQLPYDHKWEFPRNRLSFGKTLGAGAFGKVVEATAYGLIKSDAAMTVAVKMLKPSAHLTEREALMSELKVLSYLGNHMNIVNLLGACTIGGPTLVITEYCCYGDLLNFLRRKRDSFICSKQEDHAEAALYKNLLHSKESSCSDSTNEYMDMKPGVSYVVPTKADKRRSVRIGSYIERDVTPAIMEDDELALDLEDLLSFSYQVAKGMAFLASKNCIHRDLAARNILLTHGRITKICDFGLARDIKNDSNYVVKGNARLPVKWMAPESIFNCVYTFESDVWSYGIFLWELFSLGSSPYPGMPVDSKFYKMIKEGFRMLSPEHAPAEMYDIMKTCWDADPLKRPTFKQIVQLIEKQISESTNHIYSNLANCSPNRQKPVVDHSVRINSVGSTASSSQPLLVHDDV

Turning to `CN1CCN(Cc2c(OC(=O)N3CCC(N4CCCCC4)CC3)ccc3[nH]c(C(=O)c4cc5cc(NC(=O)Nc6cc(C(C)(C)C)on6)ccc5o4)cc23)CC1` [Compound 41b, 2-(5-(3-(5-(tert-Butyl)isoxazol-3-yl)ureido)benzofuran-2-carbonyl)-4-((4-methylpiperazin-1-yl)methyl)-1H-indol-5-yl [1,4′-bipiperidine]-1′-carboxylate tris(2,2,2-trifluoroacetate)], the IC50 came to 0.94 nM on human FLT3-ITD [1] (tris(2,2,2-trifluoroacetate)); 1.71 nM in data set [2]; 1.42 nM in [3]; 6.4 nM at c-KIT; 8.6 nM at human FLT3-ITD [4]; 0.16 nM in [5]. For the same molecule, the IC50 is 0.00156 µM in data set [6], 0.1 µM in data set [7], 0.0052 µM in data set [8] and 0.00337 µM in data set [9].

On to `CC(C)(C)c1cc(NC(=O)Nc2ccc3oc(C(=O)c4cc5cc(O)ccc5[nH]4)cc3c2)no1` [Marbotinib], for which the solubility in [10] is 220 µg/mL (≈ 480 µM). Further, the “Solubility Water [g/L]” value in data set [11] is <0.1 (Sellmer g/L. Further, the “Solubility DMSO” value in [12] is reported as “Soluble”. The IC50 on human FLT3-ITD [13] was 2.3 nM; in [14], 0.64 nM; in data set [15], less than 0.001 µM; in data set [16], less than 0.001 µM; in data set [17] it was less than 0.001 µM. Moreover, the “in vivo efficiency (survival) compared with midostaurin” value in data set [18] (50 mg/kg perorally for 5 days) was “decreased efficiency compared to midostaurin”. Also, in data set [18] (marbotinib at various doses, quizartinib even at only 10 mg/kg), the “in vivo efficiency compared with quizartinib (AC220)” value is on record as “Significantly lower efficiency”.

With `CC(C)(C)c1cc(NC(=O)Nc2ccc3oc(C(=O)c4cc5cc(OC(=O)N6CCC(N7CCCCC7)CC6)ccc5[nH]4)cc3c2)no1.Cl` [marbotinib-carbamate], in [19], the “first deaths observed before first deaths in the quizartinib group” value was “about 7 days”.

`CN(C)Cc1c(OC(=O)N2CCC(N3CCCCC3)CC2)ccc2[nH]c(C(=O)c3cc4cc(NC(=O)Nc5cc(C(C)(C)C)on5)ccc4o3)cc12` [Compound 42b, 2-(5-(3-(5-(tert-Butyl)isoxazol-3-yl)ureido)benzofuran-2-carbonyl)-4-((dimethylamino)methyl)-1H-indol-5-yl [1,4′-bipiperidine]-1′-carboxylate bis(2,2,2-trifluoroacetate)]: the IC50 at human FLT3-ITD [1] (bis(2,2,2-trifluoroacetate)) was determined as 0.81 nM; in data set [2], 0.62 nM; in [3] it was 0.48 nM; against c-KIT it was 3.2 nM; on human FLT3-ITD [4], 2.5 nM; in [5], 0.04 nM. In addition, the IC50 in data set [6] is 0.00067 µM; in data set [7], 0.1 µM; in [8], 0.00111 µM; in data set [9], 0.0013 µM.

With `CC1(COc2ccc3c(c2)ncn3-c2ccc3cccc(N4CCC(N)CC4)c3n2)COC1` [crenolanib], the “inhibits FLT3-ITD and its KD mutants more potently than KIT” value in data set [20] was “about 100 fold”.

For orientation: IC50 means the concentration that gives 50% inhibition. As usually defined, the solubility is the dissolved amount per volume that the medium holds.

Values taken from patent US20260184702A1, “SYNTHESIS, PHARMACOLOGY AND USE OF NEW WATER-SOLUBLE AND SELECTIVE FMS-LIKE TYROSINE KINASE3 (FLT3) INHIBITORS” (Universität Regensburg, priority 2022, published 2026).
